From paper PMC9414910, “Optimized ^68Ga-Labeled Urea-Based PSMA-Targeted PET Tracers for Prostate Cancer” (Pharmaceuticals, 2022)

Key:
22Rv1 tumor-bearing mice = experiment: Biodistribution in 22Rv1 tumor-bearing mice; settings: for Uptake Blood, Mean / Uptake Bone, Mean / Uptake Heart, Mean / Uptake Kidney, Mean / Uptake Liver, Mean / Uptake Lung, Mean / Uptake Muscle, Mean / Uptake Spleen, Mean / Uptake Tumor (22Rv1), Mean: 0.74 MBq, n = 3; for Clearance profile in the kidneys: within 60 min p.i.
Procedure: (§1) The animal studies were approved by the institutional animal care and use committee of the Chinese PLA General Hospital. Healthy male ICR mice were injected with either a novel radiotracer (37 MBq in 150 μL) or saline (150 μL) for the radiotoxicity evaluation. […] Biodistribution and micro-PET studies were performed on 22Rv1 and PC-3 xenograft models, and 2-PMPA was used as the PSMA blocker (all details are shown in the Supplementary Materials).
BALB/c nude mice (male, 4-6 weeks) were inoculated subcutaneously with […]
100 mm3, the mice underwent biodistribution study and Micro-PET imaging.
The 22Rv1 tumor-bearing mice were injected with each novel radiotracer or […]
[…] Mice were sacrificed at different time points p.i. (10 min, 30 min, 60 min), tumors and interested organs were harvested, weighed and measured by a γ-counter, the results were expressed as the percentage of injected dose per gram (ID%/g).
Table S1. Uptake values for ex vivo tissues of [ 68Ga]Ga-PSMA-Q (0.74 MBq/mice) in 22Rv1 tumor-bearing mice (10, 30 and 60 min p.i., n = 3/time point).

22Rv1 tumors = experiment: Micro-PET imaging in 22Rv1 tumor-bearing mice; assay type: in vivo; settings: 60 min p.i.; for SUVmax of tumor: 22Rv1 tumor, 7.4 MBq
Procedure: as §1
Table S9. Tumor-to-mu scle (T/M) ratio and tumor- to-kidney (T/K) rati o of radiotracers at 60 min p.i.
The Mice bearing 22Rv1 and PC-3 (n = 3/group) xenograft tumors were […]
Co-injection with 2-PMPA (50 μ g) and each novel tracer (7.4 MBq in 150 μL) was used for blocking. Then the mice were anesthetized with 3% (v/v) isoflurane and underwent Micro-PET scans with continuous 1% (v/v) isoflurane. The images were acquired at 60 min p.i.. In comparison, […]
into another group of mice (n = 3), and Micro-PET schedule was performed as […]
Imaging was performed on a Super Nova PET/CT scanner using a 100-mm-transaxial field of view for PET and 110-mm for CT.
Three-dimensional ordered-subsets expectation maximization reconstruction

[1] = Blood pharmacokinetics in male ICR mice; assay type: in vivo; settings: 7.4 MBq i.v., two-compartment model
Procedure: Injection of novel radiotracers or [68Ga]Ga-PSMA-617 or [68Ga]Ga-PSMA-11 […]
mice (5 mice/group), and the blood sample (5 μL) of each mouse was collected by cutting down the tail end at different time points post injection. The radioactivity of blood samples were measured by a γ-counter and the pharmacokinetics data was calculated using the WinNonlin software.
Figure S3. Time-activity curves of the blood samplesafter injection of 7.4 MBq of [68Ga]Ga-PSMA-4PY (A), [68Ga]Ga-PSMA-Q (B),[68Ga]Ga-PSMA-P (C), [68Ga]Ga-PSMA-617 (D), [68Ga]Ga-PSMA-11 (E), [68Ga]Ga-PSMA-Q-1 (F), [68Ga]Ga-PSMA-Q-2 (G) and [68Ga]Ga-PSMA-Q-3 (H).
(1 picture or pasted object on this page, not shown here)

22Rv1 cells (mild PSMA+) = experiment: Cell uptake / binding in 22Rv1 cells; assay type: cell-based, human; settings: 60 min incubation, 37 °C
Description: Cell lines were kindly provided by the stem cell bank of the Chinese Academy of Sciences. The human prostate cancer epithelial cell lines 22Rv1 (mild PSMA+) and PC-3 (with no PSMA receptor) were used to evaluate the specific cell-binding affinity of the radiotracers, and the results were expressed as percentages of injected activity, IA%/10^6.
Cell Lines and Culture Condition
Cell lines were kindly provided by the stem cell bank, the Chinese Academy of Sciences. The human prostate cancer cell lines 22Rv1 ( mild PSMA positive) and PC3 (PSMA negative) were cultured in RPMI 1640 medium or F12K medium (CORNING, America), supplemented with 10% Fetal Bovine Serum
(GIBCO, The Netherlands) and 1% penicillin-streptomycin (CORNING, America) in a humidified incubator at 37 °C under 5% CO2. Each cell line was passaged when it was at around 80-90% confluence, and harvested using trypsin-ethylenediaminetetraacetic acid (trypsin-EDTA; 0.25% trypsin, 0.02% EDTA, all from KeyGEN BioTECH).
Cells were seeded separately in 24 well plates (1 x 10^5 cells in 1 mL medium/well) and incubated overnight, the medium was changed 2 h before the experiment. For the binding experiments, cells were incubated with novel […]
min, 30 min and 60 min (6 wells/time point). After incubation, the medium was removed and the cells were washed twice with ice-cold phosphate-buffered saline (0.5 mL). Finally, the cells were lysed by NaOH (0.5 M, 0.5 mL). Coincubation of 2-(phosphonomethyl) pentane-1,5-dioic acid […]
(2-PMPA) solution (2 μg/well) and each radiotracer for 60 min was conducted as the blocking experiment. The radioactivity of cells was measured by a γ-counter. The studies were performed in triplicate and the results were reported as the percentage injected activity (IA%/10^6 cells). […]

[2] = Partition coefficient, octanol–water system; assay type: physicochemical; settings: octanol–water (v/v = 1:1), n = 3
Procedure: The partition coefficient of each novel radiotracer was determined using an octanol–water system (v/v = 1:1). The in vitro stability was determined using two systems (PBS and 5% BSA). The Ki value was measured by the NAALADase assay. The 22Rv1 and PC-3 cell lines were used for the cell-binding study and establishment of the tumor-bearing model (detailed information is shown in the Supplementary Materials).
PBS) and reported as log p ± SD. […]

[3] = biodistribution, 22Rv1 tumor-bearing mice, 60 min p.i.

| Compound | Uptake Blood, Mean (22Rv1 tumor-bearing mice; 10 min p.i.) [ID%/g] | Uptake Bone, Mean (22Rv1 tumor-bearing mice; 10 min p.i.) [ID%/g] | Uptake Heart, Mean (22Rv1 tumor-bearing mice; 10 min p.i.) [ID%/g] | Uptake Kidney, Mean (22Rv1 tumor-bearing mice; 10 min p.i.) [ID%/g] | Uptake Liver, Mean (22Rv1 tumor-bearing mice; 10 min p.i.) [ID%/g] | Uptake Lung, Mean (22Rv1 tumor-bearing mice; 10 min p.i.) [ID%/g] | Uptake Muscle, Mean (22Rv1 tumor-bearing mice; 10 min p.i.) [ID%/g] | Uptake Spleen, Mean (22Rv1 tumor-bearing mice; 10 min p.i.) [ID%/g] | Uptake Tumor (22Rv1), Mean (22Rv1 tumor-bearing mice; 10 min p.i.) [ID%/g] | Uptake Blood, Mean (22Rv1 tumor-bearing mice; 30 min p.i.) [ID%/g] | Uptake Bone, Mean (22Rv1 tumor-bearing mice; 30 min p.i.) [ID%/g] | Uptake Kidney, Mean (22Rv1 tumor-bearing mice; 30 min p.i.) [ID%/g] | Uptake Liver, Mean (22Rv1 tumor-bearing mice; 30 min p.i.) [ID%/g] | Uptake Lung, Mean (22Rv1 tumor-bearing mice; 30 min p.i.) [ID%/g] | Uptake Muscle, Mean (22Rv1 tumor-bearing mice; 30 min p.i.) [ID%/g] | Uptake Spleen, Mean (22Rv1 tumor-bearing mice; 30 min p.i.) [ID%/g] | Uptake Tumor (22Rv1), Mean (22Rv1 tumor-bearing mice; 30 min p.i.) [ID%/g] | Uptake Blood, Mean (22Rv1 tumor-bearing mice; 60 min p.i.) [ID%/g] | Uptake Bone, Mean (22Rv1 tumor-bearing mice; 60 min p.i.) [ID%/g] | Uptake Heart, Mean (22Rv1 tumor-bearing mice; 60 min p.i.) [ID%/g] | other results |
| --- | --- | --- | --- | --- | --- | --- | --- | --- | --- | --- | --- | --- | --- | --- | --- | --- | --- | --- | --- | --- | --- |
| O=C([O-])CN1CCN(CC(=O)[O-])CCN(CC(=O)NCC2CCC(C(=O)NC(Cc3ccc4ccccc4c3)C(=O)NCCCCC(NC(=O)NC(CCC(=O)O)C(=O)O)C(=O)O)CC2)CCN(CC(=O)O)CC1.[68Ga+3] (stereo not shown) [[^68Ga]Ga-PSMA-617, reference compound] | 2.21 | 1.17 | 2.11 | 16.30 | 1.89 | 1.40 | 0.87 | 2.11 | 2.10 | 0.58 | 0.38 | 25.77 | 1.13 | 0.95 | 0.31 | 1.31 | 3.36 | 0.33 | 0.29 | 0.10 | Uptake Heart, Mean (22Rv1 tumor-bearing mice; 30 min p.i.): 1.20 ID%/g; Uptake Kidney, Mean (22Rv1 tumor-bearing mice; 60 min p.i.): 29.78 ID%/g; Uptake Liver, Mean (22Rv1 tumor-bearing mice; 60 min p.i.): 0.51 ID%/g; Uptake Lung, Mean (22Rv1 tumor-bearing mice; 60 min p.i.): 0.33 ID%/g; Uptake Muscle, Mean (22Rv1 tumor-bearing mice; 60 min p.i.): 0.15 ID%/g; Uptake Spleen, Mean (22Rv1 tumor-bearing mice; 60 min p.i.): 0.95 ID%/g; Uptake Tumor (22Rv1), Mean (22Rv1 tumor-bearing mice; 60 min p.i.): 4.27 ± 0.10 ID%/g; Uptake Tumor (22Rv1), Mean (22Rv1 tumor-bearing mice; 60 min p.i., listed as [68Ga]Ga-PSMA-617): 4.27 ID%/g; Tumor-to-kidney (T/K) ratio (22Rv1 tumor-bearing mice; [3]): 0.14 ± 0.01; Tumor-to-muscle (T/M) ratio (22Rv1 tumor-bearing mice; [3]): 28.43 ± 0.84; Clearance profile in the kidneys (22Rv1 tumor-bearing mice): continuously accumulated in the kidneys; SUVmax of tumor (22Rv1 tumors): 0.85 ± 0.14; Tumor-to-muscle ratio (micro-PET) (22Rv1 tumors; 22Rv1 tumor-bearing mice): 20.43 ± 1.06; Elimination half-life [1]: 28.46 ± 1.64 min; Uptake in 22Rv1 cells (22Rv1 cells (mild PSMA+)): 4.01 ± 0.42 IA%/10^6; Log p pH = 7.4 [2]: −2.54 ± 0.13 |
| O=C([O-])CN1CCN(CC(=O)[O-])CCN(CC(=O)NCCCCC(=O)NC(Cc2cnc3ccccc3c2)C(=O)NCCCCC(NC(=O)NC(CCC(=O)O)C(=O)O)C(=O)O)CCN(CC(=O)O)CC1.[68Ga+3] (stereo not shown) [[^68Ga]Ga-PSMA-Q-1] | 2.88 | 0.72 | 2.21 | 27.12 | 2.38 | 1.19 | 0.81 | 2.26 | 1.67 | 1.31 | 0.21 | 18.86 | 1.23 | 0.68 | 0.18 | 1.79 | 2.07 | 0.37 | 0.15 | 0.54 | Uptake Kidney, Mean (22Rv1 tumor-bearing mice; 60 min p.i.): 5.70 ID%/g; Uptake Liver, Mean (22Rv1 tumor-bearing mice; 60 min p.i.): 0.45 ID%/g; Uptake Lung, Mean (22Rv1 tumor-bearing mice; 60 min p.i.): 0.26 ID%/g; Uptake Muscle, Mean (22Rv1 tumor-bearing mice; 60 min p.i.): 0.09 ID%/g; Uptake Spleen, Mean (22Rv1 tumor-bearing mice; 60 min p.i.): 0.45 ID%/g; Uptake Tumor (22Rv1), Mean (22Rv1 tumor-bearing mice; 60 min p.i.): 2.38 ± 0.31 ID%/g; Uptake Tumor (22Rv1), Mean (22Rv1 tumor-bearing mice; 60 min p.i., listed as [68Ga]Ga-PSMA-Q-1): 2.38 ID%/g; Clearance profile in the kidneys (22Rv1 tumor-bearing mice): washed out rapidly from the kidneys; SUVmax of tumor (22Rv1 tumors): 0.86 ± 0.09; Elimination half-life [1]: 21.17 ± 2.01 min; Uptake in 22Rv1 cells (22Rv1 cells (mild PSMA+)): 3.38 ± 0.50 IA%/10^6; Log p pH = 7.4 [2]: −3.09 ± 0.19 |
| O=C([O-])CN1CCN(CC(=O)[O-])CCN(CC(=O)NCc2ccc(C(=O)NC(Cc3cnc4ccccc4c3)C(=O)NCCCCC(NC(=O)NC(CCC(=O)O)C(=O)O)C(=O)O)cc2)CCN(CC(=O)O)CC1.[68Ga+3] (stereo not shown) [[^68Ga]Ga-PSMA-Q-3] | 1.68 | 0.67 | 1.87 | 21.45 | 1.53 | 0.83 | 0.72 | 1.12 | 1.88 | 0.72 | 0.33 | 13.88 | 1.18 | 0.53 | 0.40 | 0.94 | 2.77 | 0.34 | 0.23 | 1.11 | Uptake Heart, Mean (22Rv1 tumor-bearing mice; 30 min p.i.): 1.29 ID%/g; Uptake Kidney, Mean (22Rv1 tumor-bearing mice; 60 min p.i.): 2.65 ID%/g; Uptake Lung, Mean (22Rv1 tumor-bearing mice; 60 min p.i.): 0.43 ID%/g; Uptake Muscle, Mean (22Rv1 tumor-bearing mice; 60 min p.i.): 0.19 ID%/g; Uptake Spleen, Mean (22Rv1 tumor-bearing mice; 60 min p.i.): 0.59 ID%/g; Uptake Tumor (22Rv1), Mean (22Rv1 tumor-bearing mice; 60 min p.i.): 3.31 ± 0.29 ID%/g; Uptake Tumor (22Rv1), Mean (22Rv1 tumor-bearing mice; 60 min p.i., listed as [68Ga]Ga-PSMA-Q-3): 3.31 ID%/g; Clearance profile in the kidneys (22Rv1 tumor-bearing mice): washed out rapidly from the kidneys; SUVmax of tumor (22Rv1 tumors): 0.88 ± 0.18; Elimination half-life [1]: 25.72 ± 1.87 min; Uptake in 22Rv1 cells (22Rv1 cells (mild PSMA+)): 3.31 ± 0.49 IA%/10^6; Log p pH = 7.4 [2]: −2.99 ± 0.33 |
